“Also recorded” adds a separate entry of the source. Like-named read-outs stand apart in the source and are kept apart here.

Data set [1] concerns multiparous gravid ewes. Briefly: hGRF (1-29) on completion of two-thirds and/or at end of gestation in ewes: milk production. Type of data set: in vivo. On the procedure: 48 multiparous gravid ewes were distributed in four batches of 12 ewes each, account being taken of the earlier milk productions and of the anticipated parity (OCS--Ovine Chorionic Somatotropin--assay). The first batch forms the control batch, the ewes receiving no treatment. The other three batches receive 1.5 mg of hGRF (1-29) subcutaneously twice daily; from day 105 to day 115 of gestation for the second batch, which will be designated hereinafter as batch "GRF1"; from day 137 of gestation to littering for the third batch, which will be designated hereinafter as batch "GRF2"; and from day 105 to day 115 of gestation and from day 137 of gestation to littering for the fourth batch, which will be designated hereinafter as batch "GRF1+2". As in the above study, the administration of hGRF (1-29) is stopped as soon as parturition takes place, and lambing is induced by the administration of dexamethasone on day 145 of gestation, under the conditions described above. After parturition, the milk production of the ewes was measured twice daily, and the growth of the lambs, which received an artificial milk-feed supplied "ad libitum", was followed, the lambs receiving no growth adjuvant treatment. After a variance analysis, taking the earlier production as covariable, and after correction taking into account the parity (number of lambs per pregnancy) during the lactation in progress and during the reference lactation, the results for the milk production were compared between the control batches and batches "GRF1" and "GRF2". From the results obtained over five weeks of lactation, the curves of FIGS. 4 and 5 were plotted, the source data being reported in Table 2 below.

The subject of data set [2] is gravid ewes. Type of data set: in vivo. On the procedure: (§1) 30 gravid ewes which were at the 135th day of gestation were distributed in two batches of 15 ewes each, account being taken of the number of fetuses assumed to be present in the uteri and of the earlier milk outputs, all the ewes being multiparous. Batch A, which receives no treatment, serves as control batch. Batch B receives 1.5 mg of hGRF (1-29) (equivalent to approximately 20 μg per kg of body weight) subcutaneously twice daily, at 8.00 hours and 14.00 hours, from day 137 of gestation up to the day of littering (which varied between day 145 and day 147, depending on the ewe). The administration of hGRF (1-29) is stopped as soon as parturition takes place. In all the animals, lambing is induced by the administration of 9 α-fluoro-11β,17α,21-trihydroxy-16α-methyl-1,4-pregnadiene-3,20-dione (proposed under the INN of dexamethasone) on the basis of 16 mg intramuscularly at 20.00 hours on day 144 of gestation. The birth weights of the lambs born of mothers of the two batches A and B were compared.

The test system of data set [3] is multiparous gravid ewes. Kind of data set: hGRF (1-29) on completion of two-thirds and/or at end of gestation in ewes: birth weight and growth of lambs. Type of data set: in vivo. Conditions: for Weight of the Lambs at 30 days: control 12.12 ± 0.7 kg. On the procedure:
48 multiparous gravid ewes were distributed in four batches of 12 ewes each, account being taken of the earlier milk productions and of the anticipated parity (OCS--Ovine Chorionic Somatotropin--assay). The first batch forms the control batch, the ewes receiving no treatment. The other three batches receive 1.5 mg of hGRF (1-29) subcutaneously twice daily; from day 105 to day 115 of gestation for the second batch, which will be designated hereinafter as batch "GRF1"; from day 137 of gestation to littering for the third batch, which will be designated hereinafter as batch "GRF2"; and from day 105 to day 115 of gestation and from day 137 of gestation to littering for the fourth batch, which will be designated hereinafter as batch "GRF1+2". As in the above study, the administration of hGRF (1-29) is stopped as soon as parturition takes place, and lambing is induced by the administration of dexamethasone on day 145 of gestation, under the conditions described above. After parturition, the milk production of the ewes was measured twice daily, and the growth of the lambs, which received an artificial milk-feed supplied "ad libitum", was followed, the lambs receiving no growth adjuvant treatment. The analysis concerned only twin lambs, distributed as follows: At the age of 30 days, after variance analysis taking birth weight as covariable, a larger growth of all the lambs born of the mothers of batch GRF2 was observed. This is shown in FIG. 3, which is an illustration similar to that of FIG. 4, enabling the weights of the lambs born of the mothers of the four batches to be compared at the age of 30 days. Table 1 below complements this FIG. 3.

For data set [4], the system named is gravid ewes. Briefly: OGH (growth hormone) assay in gravid ewes given hGRF (1-29) at the end of gestation. Type of data set: in vivo. Conditions: batch B. As for the experimental part: as §1, with “[…] This discharge is the same in nature after the morning injection and after that” for “The birth weights”, “afternoon. […] This is shown in FIG. 1” for “lambs born of mothers”, “attached drawings, which represents the OGH hormone assay in terms of the time of day (mean over 15 ewes) on day 138” for “two batches A”, “on day 146 of gestation.” for “B were compared.”

A further data set relates to dairy cows. Conditions: cited from earlier work; for milk production increased: milk adjusted to fat content 3.5%.
Setting [5] is: 1.5 mg s.c. twice daily from day 137 of gestation to littering.

For “hGRF (1-29): form of human growth hormone releasing factor containing 29 amino acids, obtained after deletion of the C-terminal portion”, the “milk production greater than that of the control ewes” value in the data set with multiparous gravid ewes [1] (batch GRF1 (days 105 to 115 of gestation), fifth week of lactation) was “more than 23%”. For the same molecule, the Milk production in the data set on multiparous gravid ewes [1] (batch GRF1, week of lactation 1, FIG. 4, control 980 ± 70) is given as 1075 ± 50; in the data set with multiparous gravid ewes [1] (batch GRF1, week of lactation 2, FIG. 4, control 950 ± 60), 1090 ± 70; in the data set on multiparous gravid ewes [1] (batch GRF1, week of lactation 3, FIG. 4, control 845 ± 50) it was 1025 ± 60; in the data set on multiparous gravid ewes [1] (batch GRF1, week of lactation 4, FIG. 4, control 760 ± 45) it was 920 ± 60; with multiparous gravid ewes [1] (batch GRF1, week of lactation 5, FIG. 4, control 720 ± 50) it was 880 ± 50; in the data set on multiparous gravid ewes [1] (batch GRF2, week of lactation 1, FIG. 5, control 1020 ± 50) it was 1050 ± 60. Besides, the Milk production in the data set with multiparous gravid ewes [1] (batch GRF2, week of lactation 2, FIG. 5, control 1025 ± 60) is given as 1010 ± 50; in the data set on multiparous gravid ewes [1] (batch GRF2, week of lactation 3, FIG. 5, control 975 ± 50), 855 ± 50; in the data set on multiparous gravid ewes [1] (batch GRF2, week of lactation 4, FIG. 5, control 925 ± 50), 840 ± 40; in the data set on multiparous gravid ewes [1] (batch GRF2, week of lactation 5, FIG. 5, control 860 ± 50) it was 745 ± 60. In addition, the “birth weight of the lambs born of treated mothers” value in the data set with gravid ewes [2] (batch B, n=20, 1.5 mg s.c. twice daily day 137 to littering, control batch A 3.61±0.14 kg) was found to be 4.17 ± 0.13 kg. Besides, in the data set with gravid ewes [2] (in vivo), the “effect on dates of the lambing (parturition)” value is given as “not modifying the dates of the lambing”. Further, the “Weight of the Lambs at 30 days” value in the data set on multiparous gravid ewes [3] (batch GRF1+2: day 105 to 115 and day 137 to littering, 10 lambs) worked out at 13 ± 0.66 kg; in the data set with multiparous gravid ewes [3] (batch GRF1: day 105 to 115 of gestation, 14 lambs), 13.6 ± 0.5 kg; with multiparous gravid ewes [3] (batch GRF2: day 137 to littering, 12 lambs) it was 14.73 ± 0.53 kg. In addition, the “birth weight of the lambs versus control” value in the data set on multiparous gravid ewes [3] (batch GRF1+2: day 105 to 115 and day 137 to littering, twin lambs n=12) is recorded as “substantially similar”; with multiparous gravid ewes [3] (batch GRF1: day 105 to day 115 of gestation, twin lambs n=16), “substantially similar; also recorded: of the same order”. In addition, in the data set on multiparous gravid ewes [3] (batch GRF2: day 137 of gestation to littering, twin lambs n=12, control 2.91 kg), the “mean birth weight of the lambs” value was 3.54 kg. Besides, the “excess of lamb growth at 30 days over lambs of control mothers” value in the data set with multiparous gravid ewes [3] (ewes treated between days 105 and 115 of gestation (GRF1)) is approximately 11%. Moreover, in the data set with multiparous gravid ewes [3] (mothers treated between days 137 and 147 of gestation (GRF2), corrected for birth weight), the “excess of lamb weight at 30 days over the controls” value was determined as 21%. In addition, the “discharge of growth hormone (GH)” value in the data set on gravid ewes [4] (setting [5]) is “of large magnitude”. For the same molecule, in the data set with gravid ewes [4] (setting [5]), the “duration of the discharge of growth hormone after the subcutaneous injection” value was “approximately 5 hours”. For the same molecule, in the data set with gravid ewes [4] (mean over 15 ewes, FIG. 1), the “GH response, day 146 versus day 138 of gestation” value was “magnified as the term of the pregnancy is approached”.

B1: bGH: bovine growth hormone obtained by genetic recombination (protein, UniProt P01246 27-217, looked up)
Somatotropin: AFPAMSLSGLFANAVLRAQHLHQLAADTFKEFERTYIPEGQRYSIQNTQVAFCFSETIPAPTGKNEAQQKSDLELLRISLLLIQSWLGPLQFLSRVFTNSLVFGTSDRVYEKLKDLEEGILALMRELEDGTPRAGQILKQTYDKFDTNMRSDDALLKNYGLLSCFRKDLHKTETYLRVMKCRRFGEASCAF
For B1, the milk production increased is 16% in the data set with dairy cows (12.5 mg bGH per day), 19% with dairy cows (25 mg bGH per day) and 22% in the data set with dairy cows (50 mg bGH per day). Moreover, the “nutritional efficiency (kg milk with 3.5% fat per kg dry matter ingested) increased” value is recorded as 13.8% in the data set on dairy cows (12.5 mg bGH/day for a long period), 16.8% with dairy cows (25 mg bGH/day for a long period) and 15.3% in the data set on dairy cows (50 mg bGH/day for a long period).
